Values quoted from earlier work as cited in article PMC12812009, “Optimization of 4‐Amino‐2‐Pyridone Inhibitors of Proprotein Convertase Subtilisin/Kexin Type 9: Integrating Structure–Activity and Structure–Metabolism Relationships” (Chemmedchem, 2025).

Tested on: secreted PCSK9
Parameters: method as in PMID 38160616
Conditions: 5 µM; cited from earlier work

Q: With `Cc1cc(NCc2ccc(C(F)(F)F)cc2)cc(=O)n1Cc1ccc(C(F)(F)F)cc1` [Compound 5c] as the compound, how does the “PCSK9 secretion from HepG2 cells (in words)” value read?
A: The value was “effectively reduced PCSK9 secretion”.
